Laboratory results taken from patent US20240066131A1 (Protagonist Therapeutics, Inc., priority 2020, published 2024).
Starred links: 1 amine or outer side, 2 acyl side, 3 side chain; linkers in the order of their positions; H or OH if unused. Non-standard residues stand in square brackets, D forms with d. Residues, ends and D or L forms follow the SMILES beside them. Groups on a side chain read outwards from the residue. *: point of attachment. Ala(1H-tetrazol-5-yl) = N[C@@H](Cc1nnn[nH]1)C(=O)O; Gly(N-CH2CH2-imidazol-4-yl) = O=C(O)CNCCc1c[nH]cn1; X8 = O=C([C@H](CCc1nn[nH]n1)N[*:1])[*:2]; Dip = N[C@H](C(=O)O)C(c1ccccc1)c1ccccc1; His(τ-Me) = Cn1cnc(C[C@H](N)C(=O)O)c1; Palmitoyl = CCCCCCCCCCCCCCCC(=O)*; Myristoyl = CCCCCCCCCCCCCC(=O)*; β3hF = N[C@H](CC(=O)O)Cc1ccccc1; hLeu = CC(C)CC[C@H](N)C(=O)O; Isovaleryl = CC(C)CC(=O)*; Octanoyl = CCCCCCCC(=O)*; AEEA = NCCOCCOCC(=O)O; NHBn = c1ccc(CN*)cc1; Ahx = NCCCCCC(=O)O

Biological target: T1, ferroportin (Homo sapiens, UniProt Q9NP59)
T1 sequence (Q9NP59 1-571): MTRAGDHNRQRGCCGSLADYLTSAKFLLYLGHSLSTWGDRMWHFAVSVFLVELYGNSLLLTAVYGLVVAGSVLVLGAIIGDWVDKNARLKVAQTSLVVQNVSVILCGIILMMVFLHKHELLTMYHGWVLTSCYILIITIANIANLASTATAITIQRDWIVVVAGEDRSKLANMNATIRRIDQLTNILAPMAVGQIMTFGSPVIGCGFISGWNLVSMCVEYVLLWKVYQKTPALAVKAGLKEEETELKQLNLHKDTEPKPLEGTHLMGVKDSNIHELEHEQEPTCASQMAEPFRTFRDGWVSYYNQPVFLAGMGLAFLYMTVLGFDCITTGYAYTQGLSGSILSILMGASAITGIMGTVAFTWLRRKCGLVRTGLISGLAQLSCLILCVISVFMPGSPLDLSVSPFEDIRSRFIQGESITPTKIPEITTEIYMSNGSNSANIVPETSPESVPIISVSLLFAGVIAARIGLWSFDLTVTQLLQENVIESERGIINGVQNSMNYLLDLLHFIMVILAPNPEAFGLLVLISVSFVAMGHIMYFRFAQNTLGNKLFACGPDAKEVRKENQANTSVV
Test: FPN activity assay: internalization/degradation of ferroportin-GFP in stably transfected HEK293 cells (loss of GFP fluorescence)
Assay type: cell-based
Conditions: Table 6A; read-out: FPN EC50
Method: Following internalization, the ferroporin protein is degraded.
A retro inverse peptide is a peptide with a reversed sequence in all D amino acids. An example is that Hy-Glu-Thr-His-NH2 becomes Hy-DHis-DThr-DGlu-NH2. The EC50 of these reference compounds for ferroportin internalization/degradation was determined according to the FPN activity assay described above. These peptides served as control standards.

| DC50 | SMILES |
| --- | --- |
| > 3000 nM | CC[C@H](C)[C@H](NC(=O)[C@H](C)NC(=O)[C@@H]1CCCN1C(=O)[C@@H](NC(=O)[C@H](Cc1cn(C)cn1)NC(=O)[C@@H](NC(=O)[C@H](CCC(=O)O)NC(=O)CC(C)C)[C@@H](C)O)C(c1ccccc1)c1ccccc1)C(=O)N[C@@H](CCCCNC(C)=O)C(=O)N[C@H](CC(=O)N[C@H](CCCCN)C(=O)N[C@@H](C)C(N)=O)Cc1ccccc1 [compound 36] (Isovaleryl-ET[His(τ-Me)][Dip]PAIK(Ac)[β3hF][dK]A-NH2) |
| 63.5 nM | CCCCCCCCCCCCCCCC(=O)NCCCCCC(=O)NCCOCCOCC(=O)NCCOCCOCC(=O)NCCCC[C@H](NC(=O)[C@@H](NC(=O)[C@H](C)NC(=O)[C@@H]1CCCN1C(=O)[C@@H](NC(=O)[C@H](Cc1c[nH]cn1)NC(=O)[C@@H](NC(=O)[C@H](CCC(=O)O)NC(=O)CC(C)C)[C@@H](C)O)C(c1ccccc1)c1ccccc1)[C@@H](C)CC)C(=O)N[C@H](CC(N)=O)Cc1ccccc1 [compound 101] (Isovaleryl-ETH[Dip]PAIK([AEEA-AEEA-Ahx-Palmitoyl])[β3hF]-NH2) |
| 150 nM | CCCCCCCCCCCCCCCC(=O)NCCCCCC(=O)NCCCC[C@H](NC(=O)[C@@H](NC(=O)[C@H](CCC(C)C)NC(=O)[C@@H]1CCCN1C(=O)[C@@H](NC(=O)[C@H](Cc1c[nH]cn1)NC(=O)[C@@H](NC(=O)[C@H](CCC(=O)O)NC(=O)CC(C)C)[C@@H](C)O)C(c1ccccc1)c1ccccc1)[C@@H](C)CC)C(=O)N[C@H](CC(N)=O)Cc1ccccc1 [compound 121] (Isovaleryl-ETH[Dip]P[hLeu]IK([Ahx-Palmitoyl])[β3hF]-NH2) |
| > 3000 nM | CC[C@H](C)[C@H](NC(=O)[C@H](C)NC(=O)[C@@H]1CCCN1C(=O)[C@@H](NC(=O)[C@H](Cc1cn(C)cn1)NC(=O)[C@@H](NC(=O)[C@H](CCc1nn[nH]n1)NC(=O)CC(C)C)[C@@H](C)O)C(c1ccccc1)c1ccccc1)C(=O)N[C@@H](CCCCNC(C)=O)C(=O)N[C@H](CC(=O)N[C@H](CCCCN)C(N)=O)Cc1ccccc1 [compound 41] (Isovaleryl-[X8]T[His(τ-Me)][Dip]PAIK(Ac)[β3hF][dK]-NH2) |
| 46.3 nM | CCCCCCCCCCCCCCCC(=O)NCCCCCC(=O)NCCCC[C@H](NC(=O)C[C@H](Cc1ccccc1)NC(=O)[C@@H](CCCCN)NC(=O)[C@@H](NC(=O)[C@H](CO)NC(=O)[C@@H]1CCCN1C(=O)[C@@H](NC(=O)[C@H](Cc1c[nH]cn1)NC(=O)[C@@H](NC(=O)[C@H](CCC(=O)O)NC(=O)CC(C)C)[C@@H](C)O)C(c1ccccc1)c1ccccc1)[C@@H](C)CC)C(N)=O [compound 20] (Isovaleryl-ETH[Dip]PSI[dK][β3hF]K([Ahx-Palmitoyl])-NH2) |
| 31.9 nM | CCCCCCCCCCCCCCCC(=O)NCCCCCC(=O)NCCCC[C@H](NC(=O)[C@@H](NC(=O)[C@H](C)NC(=O)[C@@H]1CCCN1C(=O)[C@@H](NC(=O)[C@H](Cc1c[nH]cn1)NC(=O)[C@@H](NC(=O)[C@H](CCC(=O)O)NC(=O)CC(C)C)[C@@H](C)O)C(c1ccccc1)c1ccccc1)[C@@H](C)CC)C(=O)N[C@H](CC(N)=O)Cc1ccccc1 [SEQ ID No. 9, Isovaleric Acid-E-T-H-[Dpa]-P-A-I-[Lys(Ahx_Palm)]-[bhPhe]-NH2] (Isovaleryl-ETH[Dip]PAIK([Ahx-Palmitoyl])[β3hF]-NH2) |
| 24.9 nM | CCCCCCCCCCCCCCCC(=O)NCCCCCC(=O)NCCCC[C@H](NC(=O)C[C@H](Cc1ccccc1)NC(=O)[C@@H](CCCCN)NC(=O)[C@@H](NC(=O)[C@H](C)NC(=O)[C@@H]1CCCN1C(=O)[C@@H](NC(=O)[C@H](Cc1c[nH]cn1)NC(=O)[C@@H](NC(=O)[C@H](CCC(=O)O)NC(=O)CC(C)C)[C@@H](C)O)C(c1ccccc1)c1ccccc1)[C@@H](C)CC)C(N)=O [compound 3] (Isovaleryl-ETH[Dip]PAI[dK][β3hF]K([Ahx-Palmitoyl])-NH2) |
| > 3000 nM | CCCCCCCCCCCCCCCC(=O)NCCCCCC(=O)NCCCC[C@H](NC(=O)[C@@H](NC(=O)[C@H](C)NC(=O)[C@@H]1CCCN1C(=O)[C@@H](NC(=O)CN(CCc1c[nH]cn1)C(=O)[C@@H](NC(=O)[C@H](CCC(=O)O)NC(=O)CC(C)C)[C@@H](C)O)C(c1ccccc1)c1ccccc1)[C@@H](C)CC)C(=O)N[C@H](CC(N)=O)Cc1ccccc1 [compound 88] (Isovaleryl-ET[Gly(N-CH2CH2-imidazol-4-yl)][Dip]PAIK([Ahx-Palmitoyl])[β3hF]-NH2) |
| 162 nM | CCCCCCCCCCCCCCCC(=O)NCCCCCC(=O)NCCCC[C@H](NC(=O)[C@@H](NC(=O)[C@H](C)NC(=O)[C@@H]1CCCN1C(=O)[C@@H](NC(=O)[C@H](Cc1c[nH]cn1)NC(=O)[C@@H](NC(=O)[C@H](CCC(=O)O)NC(=O)CC(C)C)[C@@H](C)O)C(c1ccccc1)c1ccccc1)[C@@H](C)CC)C(=O)NCc1ccccc1 [compound 52] (Isovaleryl-ETH[Dip]PAIK([Ahx-Palmitoyl])-NHBn) |
| 162 nM | CCCCCCCC(=O)NCCCCCC(=O)NCCCC[C@H](NC(=O)[C@@H](NC(=O)[C@H](C)NC(=O)[C@@H]1CCCN1C(=O)[C@@H](NC(=O)[C@H](Cc1c[nH]cn1)NC(=O)[C@@H](NC(=O)[C@H](CCC(=O)O)NC(=O)CC(C)C)[C@@H](C)O)C(c1ccccc1)c1ccccc1)[C@@H](C)CC)C(=O)N[C@H](CC(N)=O)Cc1ccccc1 [compound 103] (Isovaleryl-ETH[Dip]PAIK([Ahx-Octanoyl])[β3hF]-NH2) |
| > 3000 nM | CC[C@H](C)[C@H](NC(=O)[C@H](C)NC(=O)[C@@H]1CCCN1C(=O)[C@@H](NC(=O)[C@H](Cc1cn(C)cn1)NC(=O)[C@@H](NC(=O)[C@H](Cc1nn[nH]n1)NC(=O)CC(C)C)[C@@H](C)O)C(c1ccccc1)c1ccccc1)C(=O)N[C@@H](CCCCNC(C)=O)C(=O)N[C@H](CC(=O)N[C@H](CCCCN)C(=O)N[C@@H](C)C(N)=O)Cc1ccccc1 [compound 39] (Isovaleryl-[Ala(1H-tetrazol-5-yl)]T[His(τ-Me)][Dip]PAIK(Ac)[β3hF][dK]A-NH2) |

Same assay, conditions: ferroportin-GFP HEK293 cells, compound incubated at least 18 hours; read-out: FPN IC50

| DC50 | SMILES |
| --- | --- |
| 1070 nM | CCCCCCCCCCCCCC(=O)NCCCCCC(=O)NCCCC[C@H](NC(=O)[C@@H](NC(=O)[C@H](C)NC(=O)[C@@H]1CCCN1C(=O)[C@H](Cc1ccccc1)NC(=O)[C@H](Cc1c[nH]cn1)NC(=O)[C@@H](NC(=O)[C@H](CCC(=O)O)NC(=O)CC(C)C)[C@@H](C)O)[C@@H](C)CC)C(=O)N[C@@H](Cc1ccccc1)C(=O)N[C@@H](CCC(=O)O)C(=O)N1CCC[C@H]1C(=O)N[C@@H](CCCNC(=N)N)C(=O)N[C@@H](CO)C(=O)N[C@@H](CCCCN)C(=O)NCC(=O)N[C@H](C)C(N)=O [compound 246] (Isovaleryl-ETHFPAIK([Ahx-Myristoyl])FEPRSKG[dA]-NH2) |
| > 3000 nM | CCCCCCCCCCCCCCCC(=O)NCCCCCC(=O)NCCCC[C@H](NC(C)=O)C(=O)N[C@H](C(=O)N[C@@H](Cc1c[nH]cn1)C(=O)N[C@H](C(=O)N1CCC[C@H]1C(=O)N[C@@H](C)C(=O)N[C@H](C(=O)N[C@H](CCCCN)C(=O)N[C@H](CC(N)=O)Cc1ccccc1)[C@@H](C)CC)C(c1ccccc1)c1ccccc1)[C@@H](C)O [compound 201] (Ac-K([Ahx-Palmitoyl])TH[Dip]PAI[dK][β3hF]-NH2) |
